{"source": "ChEMBL document CHEMBL5696439", "about": "(Cancer Res, 2010)", "key": {"[1]": {"tested_on": "Hepatocyte growth factor receptor (Homo sapiens), P08581 [M1250T]", "experiment": "Inhibition of recombinant human His-tagged MET M1250T mutant (956-1390 residues) expressed in insect cells at 2 uM using Tyr 06 as substrate measured after 1 hr by Z'-LYTE assay relative to control", "conditions": "Insect cell"}, "[2]": {"target": "Serine/threonine-protein kinase Nek2 (Homo sapiens) (UniProt P51955)", "experiment": "Inhibition of recombinant human full length His-tagged NEK2 expressed in baculovirus expression system at 2 uM using Ser/Thr 07 as substrate measured after 1 hr by Z'-LYTE assay relative to control"}, "[3]": {"target": "Activin receptor type-1B (Homo sapiens) (UniProt P36896)", "sequence (P36896 whole entry, the tested form may be a part)": "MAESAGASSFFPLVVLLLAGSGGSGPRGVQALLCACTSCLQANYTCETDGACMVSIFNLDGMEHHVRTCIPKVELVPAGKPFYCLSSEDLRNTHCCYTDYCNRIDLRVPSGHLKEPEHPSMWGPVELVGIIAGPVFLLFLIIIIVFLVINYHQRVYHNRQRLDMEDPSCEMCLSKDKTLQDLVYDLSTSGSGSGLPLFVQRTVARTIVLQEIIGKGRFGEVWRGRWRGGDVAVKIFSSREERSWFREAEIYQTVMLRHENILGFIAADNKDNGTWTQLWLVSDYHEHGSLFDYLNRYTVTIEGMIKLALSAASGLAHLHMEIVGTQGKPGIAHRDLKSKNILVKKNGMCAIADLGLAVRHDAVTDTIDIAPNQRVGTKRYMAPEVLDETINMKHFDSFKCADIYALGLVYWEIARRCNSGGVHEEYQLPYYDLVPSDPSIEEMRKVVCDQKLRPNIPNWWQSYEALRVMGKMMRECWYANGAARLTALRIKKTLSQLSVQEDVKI", "experiment": "Inhibition of recombinant human GST-tagged ACVR1B (150 to 505 residues) expressed in insect cells at 2 uM using Ser/Thr 16 as substrate measured after 1 hr by Z'-LYTE assay relative to control", "conditions": "Insect cell"}, "[4]": {"tested_on": "PC3MM2", "experiment": "Antitumor activity against human PC3MM2 cells xenografted in female nude mouse model assessed as suppression in P-S6K at T389 level at 50 mg/kg, iv administered once a week and measured at least 8 hrs by immunoblot analysis", "format": "functional, organism-based"}, "[5]": {"target": "Ephrin type-A receptor 2 (Homo sapiens) (UniProt P29317)", "experiment": "Inhibition of recombinant human GST-tagged EPHA2 (568-976 residues) expressed in insect cells at 2 uM using Tyr 01 as substrate measured after 1 hr by Z'-LYTE assay relative to control", "conditions": "Insect cell"}, "[6]": {"tested_on": "A549", "experiment": "Antitumor activity against human A549 cells xenografted in female nude mouse model assessed as suppression in tumor growth at 25 mg/kg, po qd administered as 5 days on/2 days off regimen for 4 cycles relative to control", "format": "functional", "conditions": "time 28 day"}, "[7]": {"target": "cGMP-dependent protein kinase 1 (Homo sapiens) (UniProt Q13976)", "sequence (Q13976 whole entry)": "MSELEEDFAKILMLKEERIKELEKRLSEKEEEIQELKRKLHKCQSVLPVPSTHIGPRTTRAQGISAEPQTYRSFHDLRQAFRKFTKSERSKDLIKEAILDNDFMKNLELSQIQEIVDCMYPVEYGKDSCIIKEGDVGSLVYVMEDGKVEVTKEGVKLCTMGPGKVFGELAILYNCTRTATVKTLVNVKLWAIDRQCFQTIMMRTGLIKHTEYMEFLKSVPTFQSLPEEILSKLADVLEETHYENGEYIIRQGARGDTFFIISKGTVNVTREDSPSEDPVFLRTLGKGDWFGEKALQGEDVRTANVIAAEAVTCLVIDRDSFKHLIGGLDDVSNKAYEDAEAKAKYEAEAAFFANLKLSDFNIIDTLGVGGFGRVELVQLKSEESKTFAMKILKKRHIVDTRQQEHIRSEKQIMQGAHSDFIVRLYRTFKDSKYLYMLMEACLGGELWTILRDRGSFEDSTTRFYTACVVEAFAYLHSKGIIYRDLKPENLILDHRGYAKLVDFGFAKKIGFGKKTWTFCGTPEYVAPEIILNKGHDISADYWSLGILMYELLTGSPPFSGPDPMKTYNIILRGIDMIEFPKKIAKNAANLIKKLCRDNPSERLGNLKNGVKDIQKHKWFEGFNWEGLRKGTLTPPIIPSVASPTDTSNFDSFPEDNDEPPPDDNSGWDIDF", "experiment": "Inhibition of recombinant human full length GST-tagged PRKG1 expressed in baculovirus expression system at 2 uM using Ser/Thr 01 as substrate measured after 1 hr by Z'-LYTE assay relative to control"}, "[8]": {"tested_on": "Epidermal growth factor receptor (Homo sapiens), P00533 [L858R]", "experiment": "Inhibition of recombinant human GST-tagged EGFR L858R mutant (668-1210 residues) expressed in insect cells at 2 uM using Tyr 04 as substrate measured after 1 hr by Z'-LYTE assay relative to control", "conditions": "Insect cell"}, "[9]": {"target": "Tyrosine-protein kinase JAK3 (Homo sapiens) (UniProt P52333)", "experiment": "Inhibition of recombinant human GST-tagged JAK3 (781-1124 residues) expressed in insect cells at 2 uM using Tyr 06 as substrate measured after 1 hr by Z'-LYTE assay relative to control", "conditions": "Insect cell"}, "[10]": {"tested_on": "MDA-MB-361", "experiment": "Antitumor activity against human MDA-MB-361 cells xenografted in female nude mouse model assessed as substantial regression in tumor at 50 mg/kg, po qd administered as 5 days on/2 days off regimen for 4 cycles", "format": "functional, organism-based", "conditions": "time 28.0 day"}, "[11]": {"target": "Ephrin type-B receptor 1 (Homo sapiens) (UniProt P54762)", "experiment": "Inhibition of recombinant human GST-tagged EPHB1 (613-881 residues) expressed in insect cells at 2 uM using Tyr 02 as substrate measured after 1 hr by Z'-LYTE assay relative to control", "conditions": "Insect cell"}, "[12]": {"target": "Aurora kinase A (Homo sapiens) (UniProt O14965)", "sequence (O14965 whole entry)": "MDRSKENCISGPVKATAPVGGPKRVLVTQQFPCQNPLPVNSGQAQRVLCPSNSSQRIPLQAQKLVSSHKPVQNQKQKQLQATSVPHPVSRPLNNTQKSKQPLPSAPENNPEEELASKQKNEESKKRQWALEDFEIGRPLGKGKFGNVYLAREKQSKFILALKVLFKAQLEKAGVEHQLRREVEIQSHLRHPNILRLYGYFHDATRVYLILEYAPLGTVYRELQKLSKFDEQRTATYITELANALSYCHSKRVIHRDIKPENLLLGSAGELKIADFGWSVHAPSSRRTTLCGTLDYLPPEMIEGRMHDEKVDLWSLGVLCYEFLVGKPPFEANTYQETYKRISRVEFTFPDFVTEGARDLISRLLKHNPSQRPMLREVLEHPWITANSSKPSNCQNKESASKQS", "experiment": "Inhibition of recombinant human full-length His-tagged AURKA expressed in insect cells at 2 uM using Ser/Thr 01 as substrate measured after 1 hr by Z'-LYTE assay relative to control", "conditions": "Insect cell"}, "[13]": {"tested_on": "MG-63", "experiment": "Antiproliferative activity against human MG-63 cells assessed as cell growth inhibition incubated for 24 hrs by MTS assay", "format": "functional, cell-based", "conditions": "MG-63, 24 h"}, "[14]": {"target": "Protein-tyrosine kinase 6 (Homo sapiens) (UniProt Q13882)", "experiment": "Inhibition of recombinant human full length His-tagged PTK6 expressed in baculovirus expression system at 2 uM using […] as substrate measured after 1 hr by Z'-LYTE assay relative to control"}, "[15]": {"tested_on": "MDA-MB-361", "experiment": "Antitumor activity against human MDA-MB-361 cells xenografted in female nude mouse model assessed as suppression in P-AKT at S473 level at 50 mg/kg, po qd administered as 5 days on/2 days off regimen for 4 cycles by immunoblot analysis", "format": "functional, organism-based", "conditions": "time 28.0 day"}, "[16]": {"tested_on": "PC3MM2", "experiment": "Antiproliferative activity against human PC3MM2 cells assessed as cell growth inhibition incubated for 24 hrs by MTS assay", "format": "functional, cell-based", "conditions": "PC3MM2, 24 h"}, "[17]": {"target": "Calcium/calmodulin-dependent protein kinase type 1D (Homo sapiens) (UniProt Q8IU85)", "sequence (Q8IU85 whole entry, looked up)": "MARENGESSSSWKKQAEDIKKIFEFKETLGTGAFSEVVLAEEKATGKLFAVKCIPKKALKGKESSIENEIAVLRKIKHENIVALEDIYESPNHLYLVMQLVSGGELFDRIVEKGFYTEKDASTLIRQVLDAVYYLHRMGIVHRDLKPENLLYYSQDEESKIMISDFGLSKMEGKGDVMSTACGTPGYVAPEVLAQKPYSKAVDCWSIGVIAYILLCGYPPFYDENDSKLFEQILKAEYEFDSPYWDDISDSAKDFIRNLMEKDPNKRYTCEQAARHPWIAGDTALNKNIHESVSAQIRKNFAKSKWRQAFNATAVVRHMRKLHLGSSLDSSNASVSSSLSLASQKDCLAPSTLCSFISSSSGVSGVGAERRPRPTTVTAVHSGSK", "experiment": "Inhibition of recombinant human full-length His-tagged CAMK1D expressed in insect cells at 2 uM using Ser/Thr 25 as substrate measured after 1 hr by Z'-LYTE assay relative to control", "conditions": "Insect cell"}, "[18]": {"tested_on": "A498", "experiment": "Antiproliferative activity against human A498 cells assessed as cell growth inhibition incubated for 24 hrs by MTS assay", "format": "functional, cell-based", "conditions": "A498, 24 h"}, "[19]": {"target": "SRSF protein kinase 1 (Homo sapiens) (UniProt Q96SB4)", "sequence (Q96SB4 whole entry)": "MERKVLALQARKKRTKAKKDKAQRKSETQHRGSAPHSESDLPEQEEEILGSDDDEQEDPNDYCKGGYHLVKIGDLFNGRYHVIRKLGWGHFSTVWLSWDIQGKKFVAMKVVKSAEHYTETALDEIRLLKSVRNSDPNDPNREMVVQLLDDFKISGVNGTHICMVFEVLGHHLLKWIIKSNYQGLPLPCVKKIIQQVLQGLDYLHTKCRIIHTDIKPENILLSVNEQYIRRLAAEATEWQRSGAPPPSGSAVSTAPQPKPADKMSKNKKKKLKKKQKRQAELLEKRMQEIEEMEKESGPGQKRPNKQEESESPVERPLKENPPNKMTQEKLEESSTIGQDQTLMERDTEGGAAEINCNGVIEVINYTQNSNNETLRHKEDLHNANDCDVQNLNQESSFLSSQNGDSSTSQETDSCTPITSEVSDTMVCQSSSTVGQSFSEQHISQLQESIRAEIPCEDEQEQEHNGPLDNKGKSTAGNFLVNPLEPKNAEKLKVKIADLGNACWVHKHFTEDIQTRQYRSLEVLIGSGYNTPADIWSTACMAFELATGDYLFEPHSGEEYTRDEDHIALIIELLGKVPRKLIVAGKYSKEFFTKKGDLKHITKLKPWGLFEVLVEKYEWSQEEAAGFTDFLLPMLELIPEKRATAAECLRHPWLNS", "experiment": "Inhibition of recombinant human full length His-tagged SRPK1 expressed in insect cells at 2 uM using Ser/Thr 18 as substrate measured after 1 hr by Z'-LYTE assay relative to control", "conditions": "Insect cell"}, "[20]": {"target": "Mitogen-activated protein kinase kinase kinase kinase 2 (Homo sapiens) (UniProt Q12851)", "sequence (Q12851 whole entry)": "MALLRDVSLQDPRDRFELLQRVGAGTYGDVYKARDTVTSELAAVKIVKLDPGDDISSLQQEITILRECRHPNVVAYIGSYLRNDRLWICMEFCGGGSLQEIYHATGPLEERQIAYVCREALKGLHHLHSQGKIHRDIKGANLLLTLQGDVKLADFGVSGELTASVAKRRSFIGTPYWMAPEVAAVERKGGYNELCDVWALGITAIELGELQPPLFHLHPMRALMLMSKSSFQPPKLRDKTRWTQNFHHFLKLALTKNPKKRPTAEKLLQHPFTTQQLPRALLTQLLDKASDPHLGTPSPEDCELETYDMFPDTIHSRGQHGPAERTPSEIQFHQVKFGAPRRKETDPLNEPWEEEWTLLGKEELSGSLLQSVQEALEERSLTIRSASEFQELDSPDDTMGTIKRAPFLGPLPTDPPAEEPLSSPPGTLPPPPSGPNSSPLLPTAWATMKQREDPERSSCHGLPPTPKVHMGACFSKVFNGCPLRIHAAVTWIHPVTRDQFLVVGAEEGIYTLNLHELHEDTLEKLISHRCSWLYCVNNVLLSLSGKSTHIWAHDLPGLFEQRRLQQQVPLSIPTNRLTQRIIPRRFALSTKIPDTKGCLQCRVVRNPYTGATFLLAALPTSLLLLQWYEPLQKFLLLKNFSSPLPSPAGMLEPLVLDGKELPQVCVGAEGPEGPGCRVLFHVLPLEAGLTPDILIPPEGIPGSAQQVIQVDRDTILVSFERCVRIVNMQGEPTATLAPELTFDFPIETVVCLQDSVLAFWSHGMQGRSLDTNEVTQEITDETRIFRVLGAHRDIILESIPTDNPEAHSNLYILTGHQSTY", "experiment": "Inhibition of recombinant human full-length His-tagged MAP4K2 expressed in insect cells at 2 uM using Ser/Thr 07 as substrate measured after 1 hr by Z'-LYTE assay relative to control", "conditions": "Insect cell"}, "[21]": {"target": "Fibroblast growth factor receptor 3 (Homo sapiens) (UniProt P22607)", "experiment": "Inhibition of recombinant human His-tagged FGFR3 (399-806 residues) expressed in insect cells at 2 uM using Tyr 04 as substrate measured after 1 hr by Z'-LYTE assay relative to control", "conditions": "Insect cell"}, "[22]": {"tested_on": "MDA-MB-361", "experiment": "Antiproliferative activity against human MDA-MB-361 cells assessed as cell growth inhibition incubated for 3 days by MTS assay", "format": "functional, cell-based", "conditions": "MDA-MB-361, 72 h"}, "[23]": {"target": "Dual specificity protein kinase CLK1 (Homo sapiens) (UniProt P49759)", "experiment": "Inhibition of recombinant human GST-tagged CLK1 (129-484 residues) expressed in E. coli at 2 uM using Ser/Thr 09 as substrate measured after 1 hr by Z'-LYTE assay relative to control"}, "[24]": {"tested_on": "PC3MM2", "experiment": "Induction of apoptosis in human PC3MM2 cells assessed as reduction in S phase at 1 micromol/L incubated for 24 hrs by FACS analysis", "format": "functional, cell-based", "conditions": "dose 1.0 µmol/L"}, "[25]": {"target": "Tyrosine-protein kinase JAK2 (Homo sapiens) (UniProt O60674)", "sequence (O60674 whole entry)": "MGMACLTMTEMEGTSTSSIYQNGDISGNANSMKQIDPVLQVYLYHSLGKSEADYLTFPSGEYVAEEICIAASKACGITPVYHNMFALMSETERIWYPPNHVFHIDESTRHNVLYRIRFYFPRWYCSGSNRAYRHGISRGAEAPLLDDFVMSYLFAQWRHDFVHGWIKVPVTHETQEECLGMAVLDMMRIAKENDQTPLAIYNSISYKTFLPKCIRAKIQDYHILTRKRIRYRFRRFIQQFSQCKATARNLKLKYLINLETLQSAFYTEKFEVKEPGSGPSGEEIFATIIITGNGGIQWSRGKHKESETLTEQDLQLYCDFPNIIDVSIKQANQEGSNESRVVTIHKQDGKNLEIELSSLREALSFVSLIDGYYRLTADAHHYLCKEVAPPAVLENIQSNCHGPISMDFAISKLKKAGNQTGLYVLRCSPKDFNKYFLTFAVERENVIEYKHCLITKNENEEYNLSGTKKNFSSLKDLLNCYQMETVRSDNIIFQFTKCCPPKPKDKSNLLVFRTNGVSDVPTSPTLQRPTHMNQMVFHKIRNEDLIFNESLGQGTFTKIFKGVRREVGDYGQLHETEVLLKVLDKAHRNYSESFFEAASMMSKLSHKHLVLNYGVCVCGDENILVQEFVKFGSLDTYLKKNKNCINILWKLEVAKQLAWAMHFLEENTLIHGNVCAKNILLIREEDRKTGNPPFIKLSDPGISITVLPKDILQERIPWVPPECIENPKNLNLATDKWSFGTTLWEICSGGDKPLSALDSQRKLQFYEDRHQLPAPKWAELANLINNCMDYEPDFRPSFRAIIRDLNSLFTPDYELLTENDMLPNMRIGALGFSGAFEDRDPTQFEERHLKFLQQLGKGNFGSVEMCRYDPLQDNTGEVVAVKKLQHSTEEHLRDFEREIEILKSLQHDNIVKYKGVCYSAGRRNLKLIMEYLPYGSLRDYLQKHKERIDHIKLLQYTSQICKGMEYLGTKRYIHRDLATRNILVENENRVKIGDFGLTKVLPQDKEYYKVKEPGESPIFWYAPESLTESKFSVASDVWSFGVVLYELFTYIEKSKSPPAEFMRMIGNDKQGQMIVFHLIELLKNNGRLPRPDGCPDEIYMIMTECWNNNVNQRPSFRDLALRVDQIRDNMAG", "experiment": "Inhibition of recombinant human GST-tagged JAK2 (809-1153 +9 residues) expressed in insect cells at 2 uM using Tyr 06 as substrate measured after 1 hr by Z'-LYTE assay relative to control", "conditions": "Insect cell"}, "[26]": {"target": "MAP kinase-activated protein kinase 3 (Homo sapiens) (UniProt Q16644)", "sequence (Q16644 whole entry, looked up)": "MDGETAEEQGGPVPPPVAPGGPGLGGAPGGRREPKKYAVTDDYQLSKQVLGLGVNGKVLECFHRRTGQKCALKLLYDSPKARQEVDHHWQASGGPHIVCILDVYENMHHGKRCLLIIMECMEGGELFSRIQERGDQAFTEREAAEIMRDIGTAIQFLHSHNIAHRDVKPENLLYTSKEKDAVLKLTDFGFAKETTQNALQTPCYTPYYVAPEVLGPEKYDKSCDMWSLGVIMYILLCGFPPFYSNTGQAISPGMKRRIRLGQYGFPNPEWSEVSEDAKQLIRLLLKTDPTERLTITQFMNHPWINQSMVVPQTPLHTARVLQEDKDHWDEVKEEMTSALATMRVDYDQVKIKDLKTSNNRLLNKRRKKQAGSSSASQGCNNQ", "experiment": "Inhibition of recombinant human full length His-tagged MAPKAPK3 expressed in baculovirus expression system at 2 uM using Ser/Thr 04 as substrate measured after 1 hr by Z'-LYTE assay relative to control"}}, "note": "Calls of active or inactive are those of the source. No cut-off for these calls is given here."}
{"smiles": "CNC(=O)Nc1ccc(-c2nc(N3CC4CCC(C3)O4)c3cnn(C4CCC5(CC4)OCCO5)c3n2)cc1", "values": [{"measurement": "inhibition", "setting": "[1]", "result": 1, "unit": "%"}, {"measurement": "inhibition", "setting": "[2]", "result": 10, "unit": "%"}, {"measurement": "inhibition", "setting": "[3]", "result": 3, "unit": "%"}, {"measurement": "Activity", "setting": "[4]", "result": "Active"}, {"measurement": "inhibition", "setting": "[5]", "result": 8, "unit": "%"}, {"measurement": "Activity", "setting": "[6]", "result": 100, "unit": "%"}, {"measurement": "inhibition", "setting": "[7]", "result": 1, "unit": "%"}, {"measurement": "inhibition", "setting": "[8]", "result": 3, "unit": "%"}, {"measurement": "inhibition", "setting": "[9]", "result": 0, "unit": "%"}, {"measurement": "Activity", "setting": "[10]", "result": "Active"}, {"measurement": "inhibition", "setting": "[11]", "result": 2, "unit": "%"}, {"measurement": "inhibition", "setting": "[12]", "result": 0, "unit": "%"}, {"measurement": "IC50", "setting": "[13]", "result": 25, "unit": "nM"}, {"measurement": "inhibition", "setting": "[14]", "result": 8, "unit": "%"}, {"measurement": "Activity", "setting": "[15]", "result": "Active"}, {"measurement": "IC50", "setting": "[16]", "result": 2, "unit": "nM"}, {"measurement": "inhibition", "setting": "[17]", "result": 0, "unit": "%"}, {"measurement": "IC50", "setting": "[18]", "result": 110, "unit": "nM"}, {"measurement": "inhibition", "setting": "[19]", "result": 2, "unit": "%"}, {"measurement": "inhibition", "setting": "[20]", "result": 3, "unit": "%"}, {"measurement": "inhibition", "setting": "[21]", "result": 5, "unit": "%"}, {"measurement": "IC50", "setting": "[22]", "result": 12, "unit": "nM"}, {"measurement": "inhibition", "setting": "[23]", "result": -3, "unit": "%"}, {"measurement": "Activity", "setting": "[24]", "result": "Active"}, {"measurement": "inhibition", "setting": "[25]", "result": -3, "unit": "%"}, {"measurement": "inhibition", "setting": "[26]", "result": 1, "unit": "%"}]}
